Assay results from patent publication US7727511B2, “Agents for imaging soluble a-beta” (priority 2003, dated 2010).
Several values for one entry are separate records, joined by “and”; a condition that tells them apart may be missing. Equal values may be shown once.

Legend:
soluble A-beta (1-42) = target: T1, soluble A-beta (1-42) (Homo sapiens, UniProt P05067); experiment: Fluorescence titration assay, soluble A-beta; format: binding; details: for Kd: read-out: KD of compound to soluble A-beta (1-42)
T1 construct: 1 mg of human beta-amyloid 1-42 (H-5642, Bachem); purchased Bachem H-5642; host or cells: synthetic peptide
T1 sequence (P05067 672-713 limits assumed): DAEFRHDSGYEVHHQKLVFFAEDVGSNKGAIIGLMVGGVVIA
Protocol: A. 1 mg of human beta-amyloid 1-42 (H-5642, Bachem) and 500 uL of 1,1,1,3,3,3 hexafluoro-2-propanol (HFIP) (Aldrich) were chilled in separate bottles on ice for 30 mins. Cold beta-amyloid 1-42 was solubilized with cold HFIP. The mixture was incubated for 1 hr at room temperature until it turned clear. The resulting solution was then dried to a film under vacuum. The film was dissolved again in cold HFIP and incubated another 1 hr at room temperature. The resulting solution was separated into aliquots in several microcentrifuge tubes. HFIP was removed under vacuum, and the films were stored at −20° C. until use. To prepare soluble oligomer, the film was dissolved in appropriate amount of dry DMSO (Sigma), and Ham's F12 media (Biosource) or PBS (Sigma, D8537) was added and incubated at 4° C. for 24 hours (final concentration of 200 uM or 0.9 mg/mL beta-amyloid in 2% DMSO). The tube containing the soluble oligomers was centrifuged at 13,000 rpm for 5 mins, and its supernatant was transferred to a clean tube.
(§1) Fresh solutions of 2-4 mM probe in methanol were appropriately diluted with PBS (pH 7.4) to obtain assay solutions with final concentration range of 0.1 nM to 100 μM probe in 300-400 μL PBS (pH 7.4, 2% methanol) with 10 μM A-beta (1-40) fibrils or 6.6 μM soluble A-beta (1-42). A duplicate series of assay solutions were aliquoted with the volume of soluble A-beta or fibrils replaced by PBS. The set of solutions with probe and soluble/fibrillar A-beta and the duplicate set without A-beta were prepared and the fluorescence spectra measured in triplicate. Spectral changes in the probe's fluorescence emission spectra that were unique to the presence of A-beta indicated specific binding interactions between the probe and A-beta species. This unique spectral change allowed for the determination of the probe's binding affinity. Fluorescence emission spectra for binding affinity determinations are measured with fluorometric instrumentation known to those skilled in the art, including at least a spectrofluorometer and spectrograph. Equilibrium dissociation constants were calculated using a one-site saturation model of binding.

A-beta (1-40) fibrils = target: T2, A-beta (1-40) fibrils (Homo sapiens, UniProt P05067); experiment: Fluorescence titration assay, fibrils; format: binding; details: for binding to A-beta (1-40) fibrils: fluorescence binding assays, stated in words; for Kd: read-out: KD of compound to insoluble A-beta (1-40) fibrils
T2 construct: Lyophilized human beta-amyloid 1-40 peptide (Catalog number H-1194, Bachem); purchased Bachem H-1194; host or cells: synthetic peptide
T2 sequence (P05067 672-711 limits assumed): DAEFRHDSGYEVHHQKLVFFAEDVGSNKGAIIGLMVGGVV
Protocol: B. Insoluble A-beta (1-40) fibril formation: Lyophilized human beta-amyloid 1-40 peptide (Catalog number H-1194, Bachem) was solubilized with HFIP to produce a dry clear film following the process described above for beta-amyloid 1-42. The clear film of beta-amyloid 1-40 was diluted with distilled water to achieve a 6 mg/mL concentration. […] The clear solution was diluted to 1 mg/mL with PBS, pH 7.4 to obtain a final concentration of 1 mg/mL beta-amyloid 1-40, and then incubated at 37° C. on an orbital shaker at 200 RPM for 4 days. A cloudy solution was produced, and the fibril production was confirmed by measuring changes in fluorescence of Thioflavin T, as well as by atomic force microscopy and transmission electron microscopy. Fibrils were used immediately after their production was confirmed.
as §1

[1] = target: T3, beta-amyloid 1-42 oligomer (20% biotin) (Homo sapiens, UniProt P05067); experiment: SPA competition binding assay against 3H-49b on soluble oligomers; details: 50 uM unlabeled competitor, 130 nM 3H-49b
T3 construct: 12 μg beta-amyloid 1-42 oligomer (20% biotin); purchased Bachem H-5642; host or cells: synthetic peptide
T3 sequence (P05067 672-713 limits assumed): as the sequence (P05067 672-713 limits assumed) above
Protocol: Lyophilized Streptavidin-Ysi beads (GE Healthcare) were reconstituted to 100 mg/mL in deioniozed water, and then further diluted in deionized water to give a suspension containing 0.25 mg/10 μl water. Unlabeled 49b and other benzofuran probes were dissolved in DMSO to give a final stock concentration of 15 mM.
For the saturation-binding assay, isotopic dilution of radiolabeled 49b with unlabeled 49b was performed. ^3H-49b was added to 500 uM of unlabeled 49b to a final concentration of 50 μCi/mL ^3H-49b. The probe solution was then serially diluted in PBS to give six solutions giving 6.6, 13.1, 26.3, 52.5, 105, or 210 uM in the final assay well. Each concentration of the probe solution was incubated with 12 μg beta-amyloid 1-42 oligomer (20% biotin) or 1-40 (20% biotin) fibrils in a total volume of 90 μl. Assays were incubated at room temp for 2 hrs before addition of 10 μL YSi-streptavidin (0.25 mg) SPA bead. Assays were set-up in triplicate in 96-well NBS plates (Costar). Assays were incubated overnight and counted the following morning. […] The specific activities of the four probes were different, however the level of activity was the same at the concentrations where the probes were tested. For this assay, 130 nM of ^3H-49b, 90 nM ^3H-cimetidine, 14 nM ^3H-caffeine, and 6 nM ^3H-AZT were tested for direct binding to 12 ug of beta-amyloid-42 oligomer (20% biotin). Assay conditions were the same as described in saturation binding assay. […]
Data analyses were performed using Sigma Plot or GraphPad Prism® version 4. Curves were fitted using non-linear regression. KD values and IC50 values were estimated from the binding curves.
For the competition binding assay between tritium-labeled 49b and various unlabeled benzofuran analogs, assays contained 130 nM ^3H-49b and 50 uM of each of the unlabeled benzofuran analogs. As controls, 10 uM and 50 uM of unlabeled 49b were included in the assays.

[2] = target: T3, beta-amyloid 1-42 oligomer (20% biotin); experiment: Scintillation proximity assay (SPA), direct/saturation binding of tritium labeled probe to soluble oligomers; details: 90 nM 3H-cimetidine, 14 nM 3H-caffeine, 6 nM 3H-AZT; 12 ug oligomer
Protocol: For SPA and atomic force microscopy (AFM) experiments, preparations of soluble oligomers and fibrils contained 20% biotinylated beta-amyloid 1-42 and 1-40, respectively (H-5642, H-5914, Bachem).
For the saturation-binding assay, isotopic dilution of radiolabeled 49b with unlabeled 49b was performed. ^3H-49b was added to 500 uM of unlabeled 49b to a final concentration of 50 μCi/mL ^3H-49b. The probe solution was then serially diluted in PBS to give six solutions giving 6.6, 13.1, 26.3, 52.5, 105, or 210 uM in the final assay well. Each concentration of the probe solution was incubated with 12 μg beta-amyloid 1-42 oligomer (20% biotin) or 1-40 (20% biotin) fibrils in a total volume of 90 μl. Assays were incubated at room temp for 2 hrs before addition of 10 μL YSi-streptavidin (0.25 mg) SPA bead. Assays were set-up in triplicate in 96-well NBS plates (Costar). Assays were incubated overnight and counted the following morning. […] Assay conditions were the same as described in saturation binding assay.
A direct binding assay using tritium labeled 49b was performed against oligomers or fibrils by scintillation proximity assay (SPA). Beta-amyloid containing 20% biotin and tritiated 49b were incubated in solution for two hours prior to addition of the Ysi-Streptavidin beads.

[3] = tested on: beta-amyloid in PDAPP mouse brain sections; experiment: Histochemical staining on PDAPP transgenic mouse brain sections; format: binding; details: 24-month old PDAPP, carbonate extraction buffer to remove soluble material
Chain of beta-amyloid in PDAPP mouse brain sections (P05067 672-711 limits assumed): as the sequence (P05067 672-711 limits assumed) above
Protocol: 3-month old and 24-month old PDAPP mouse brains were obtained from Eli Lilly (Indianapolis, Ind.). Fresh frozen 30 micron sections of the brains were fixed in 10% formalin. For 49b, or Thioflavin S staining, 1 mM stock solutions of 49b and Thioflavin S were prepared in 50% ethanol. The probes were diluted to 25 μM in 50% ethanol, and then applied onto the PDAPP brain sections. The slides were incubated in a humid chamber at room temperature for 1 hr. The slides were washed three times with PBS and mounting medium (Molecular Probes) was added. The slides were incubated at least 4-6 hours before imaging. For the carbonate pre-treatment of the brain sections, formalin-fixed sections were incubated with 100 μL of carbonate buffer containing 0.025 M sodium chloride and 0.1 M sodium carbonate for 45 mins at 37° C. The slides were washed three times with PBS, then 49b or Thioflavin S were applied on the slides as described above. Microscopic examination and imaging was performed using a Leica wide-field fluorescence microscope using filter cube A for 49b and cube E4 for Thioflavin S. Co-staining of the probes with 6E10 anti-beta-amyloid antibody in the PDAPP brain sections was described in the ex vivo assay using naïve rats.

[4] = 6.6 μM soluble A-beta (1-42), PBS pH 7.4, 2% methanol
[5] = 10 μM A-beta (1-40) fibrils, PBS pH 7.4, 2% methanol

Compound | inhibition at 50 µM [1] [%] | further results
Cc1cc(-c2oc3ccccc3c2C(=O)c2ccccc2)ccc1F [Compound 38b] | – | KD of compound to soluble A-beta (1-42) (soluble A-beta (1-42); [4]): Nonspecific binding; binding to soluble A-beta (1-42) (soluble A-beta (1-42); fluorescence binding assays, stated in words): neither binds; KD of compound to insoluble A-beta (1-40) fibrils (A-beta (1-40) fibrils; [5]): Nonspecific binding; binding to A-beta (1-40) fibrils (A-beta (1-40) fibrils): neither binds
Cc1cc(-c2oc3ccccc3c2C)ccc1F [Compound 39b] | – | Kd (soluble A-beta (1-42); [4]): > 100 µM; Kd (A-beta (1-40) fibrils; [5]): 1.68 µM; binding to A-beta (1-40) fibrils (A-beta (1-40) fibrils): specifically binds
CCOC(=O)c1ccc(C(O)c2ccc(-c3oc4ccccc4c3COC(C)=O)o2)o1 (stereo not shown) [Compound 12c] | 59 | –
CC(=O)OCc1c(-c2ccc(CN3CCN(c4ccc(C(F)(F)F)cc4)CC3)o2)oc2ccccc12 [Compound 13c] | 60 | –
N#Cc1ccc(C(O)c2ccc(-c3oc4ccccc4c3CO)o2)cc1 (stereo not shown) [Compound 6c] | 51 | –
CCOC(=O)c1ccc(C(O)c2ccc(-c3oc4ccccc4c3CO)o2)o1 (stereo not shown) [Compound 10c] | 57 | –
COC(=O)[C@H](C(C)C)n1cnc(-c2ccccc2)c1-c1ccc(-c2oc3ccccc3c2CO)o1 [Compound 2c] | 30 | –
CC(=O)OCc1c(-c2ccc(C=O)o2)oc2ccccc12 [Compound 7c] | 51 | –
CC(=O)OCc1c(-c2ccc(CN3CCN(c4ccc(C#N)cc4)CC3)o2)oc2ccccc12 [Compound 1c] | 24 | –
CC(=O)OCc1c(-c2ccc(CN3CCN(c4ccc(C)cc4)CC3)o2)oc2ccccc12 [Compound 14c] | 60 | –
CC(=O)OCc1c(-c2ccc(C(O)c3ccc(F)c(Cl)c3)o2)oc2ccccc12 (stereo not shown) [Compound 8c] | 51 | –
COCCN1CCN(Cc2ccc(-c3oc4ccccc4c3COC(C)=O)o2)CC1 [Compound 4c] | 41 | –
OCc1c(-c2ccc(C(O)CCC3OCCCO3)o2)oc2ccccc12 (stereo not shown) [Compound 15c] | 68 | –
COc1ccc(N2CCN(Cc3ccc(-c4oc5ccccc5c4COC(C)=O)o3)CC2)cc1 [Compound 3c] | 38 | –
OCc1c(-c2ccc(-c3c(-c4ccccc4)ncn3CCF)o2)oc2ccccc12 [Compound 5c] | 48 | –
CN/C(=N/CCSCc1nc[nH]c1C)NC#N [cimetidine, reference compound] | – | direct binding of tritium labeled probe to soluble oligomers [2]: did not bind
CC(=O)OCc1c(-c2ccc(CN3CCN(c4ccc(Cl)cc4)CC3)o2)oc2ccccc12 [Compound 9c] | 55 | –
OCc1c(-c2ccc(-c3cncn3CCF)o2)oc2ccccc12 [Compound 11c] | 58 | –
COc1cc(-c2oc3ccccc3c2CO)cc(OC)c1OC [Compound 37b] | – | Kd (soluble A-beta (1-42); [4]): 0.022 µM and 0.0228 µM; increase in fluorescence intensity (and quantum yield) with soluble A-beta (soluble A-beta (1-42); relative to compound in 2% methanol in PBS): approximately 5 times; Kd (A-beta (1-40) fibrils; [5]): > 100 µM; binding to A-beta (1-40) fibrils (A-beta (1-40) fibrils): minimal specific binding
Thioflavin S [reference compound] | – | staining of carbonate pre-treated brain sections [3]: staining remained
